# Where two headings read alike, the source gives them in different places.
# Columns and labels:
# [1] = Hygroscopicity determination (vapor sorption); assay type: physicochemical; details: room temperature (25° C.)
# Description: Hygroscopicity Determination
# The weight change of a test sample at room temperature (25° C.) and at 80% relative humidity (RH) was investigated by recording adsorption-desorption isotherms using a symmetric vapor-sorption analyser SGA-100 (VTI Corporation) using different methods, the main features being: a single sorption/desorption cycle from 0 to 90% RH in 10% RH steps with a dm/dt trigger value of 0.002%, (dm/dt=change in mass with time—when the balance stability is within this value the next step is automatically started, however, if those conditions are not achieved there is a default maximum time for each step of 6 hours). Approximately 2 to 10 mg of the test sample was placed in a sample holder and exposed to different relative humidities.
# [2] = Estimated solubility of the salt in organic solvents; assay type: physicochemical; details: organic solvent or mixture
# Description: (a) Form B was prepared by dissolving, in a vial, 20% w of a sample of the furoate salt prepared by the method of Example 1(b) (Form A) in a solvent such as ethanol (16 mg/ml) or 2-butanol (8 mg/ml). The figures in brackets indicate the estimated solubility of the salt in these solvents. The vial was then sealed and the suspension was homogenised at ambient temperature (20° C.) using a magnet. Stirring and temperature were maintained for a period of at least 7 days after which time a sample of the material obtained was dried and tested by XRPD. XRPD confirmed that there had been complete transformation of Form A to Form B.
# human CCR1 = target: T1, human CCR1 (Homo sapiens, UniProt P32246); experiment: Human CCR1 binding assay; details: HEK-CCR1 membranes, displacement of 33 pM [125I] MIP-1α
# T1 construct: expressed in transfected cells; membrane preparation
# T1 sequence (P32246 1-355): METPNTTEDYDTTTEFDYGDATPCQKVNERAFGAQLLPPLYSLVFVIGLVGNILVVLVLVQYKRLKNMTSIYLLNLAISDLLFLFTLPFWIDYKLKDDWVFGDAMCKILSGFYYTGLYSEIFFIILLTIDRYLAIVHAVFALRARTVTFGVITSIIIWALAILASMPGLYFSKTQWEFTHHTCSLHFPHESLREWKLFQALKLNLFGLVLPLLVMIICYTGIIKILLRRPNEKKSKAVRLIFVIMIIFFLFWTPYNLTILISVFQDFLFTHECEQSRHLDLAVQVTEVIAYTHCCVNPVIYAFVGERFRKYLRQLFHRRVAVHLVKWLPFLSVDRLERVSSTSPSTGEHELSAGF
# Description: HEK293 cells, from ECACC, stably expressing recombinant human CCR1 (HEK-CCR1) were used to prepare cell membranes containing CCR1. The membranes were stored at −70° C. The concentration of membranes of each batch was adjusted to 10% specific binding of 33 pM [^125I] MIP-1α.
# 100 μL of HEK-CCR1 membranes diluted in assay buffer pH 7.4 (137 mM NaCl (Merck, Cat No 1.06404), 5.7 mM Glucose (Sigma, Cat No G5400), 2.7 mM KCl (Sigma, Cat No P-9333), 0.36 mM NaH2PO4×H2O (Merck, Cat No 1.06346), 10 mM HEPES (Sigma, Cat No H3375), 0.1% (w/v) Gelatine (Sigma, Cat No G2625)) with the addition of 17500 units/L Bacitracin (Sigma, Cat No B 1025) were added to each well of the 96 well filter plate (0.45 μm opaque Millipore cat no MHVB N4550). […] 12 μl assay buffer with 10% DMSO was added to certain wells (without compound) to detect maximal binding (B0).
# 12 μL [^125I] MIP-1α, diluted in assay buffer to a final concentration in the wells of 33 pM, was added to all wells. The plates with lid were then incubated for 1.5 hrs at room temperature. After incubation the wells were emptied by vacuum filtration (MultiScreen Resist Vacuum Manifold system, Millipore) and washed once with 200 μl assay buffer. After the wash, all wells received an addition of 50 μL of scintillation fluid (OptiPhase “Supermix”, Wallac Oy, Turko, Finland). Bound [^125I] MIP-1α was measured using a Wallac Trilux 1450 MicroBeta counter. […]
Water Uptake (% w/w) at 80% RH [1] [% w/w],"solubility ([2]; solvent 2-butanol, read-out: estimated solubility of the salt in 2-butanol) [mg/mL]","solubility ([2]; solvent ethanol, read-out: estimated solubility of the salt in ethanol) [mg/mL]",IC50 (human CCR1) [nM],SMILES
<0.8,8,16,,"CC(=O)Nc1ccc(O)cc1OC[C@@](C)(O)CNC1CCN(Cc2ccc(Cl)cc2)CC1 [Form A, N-{2-[((2S)-3-{[1-(4-chlorobenzyl)piperidin-4-yl]amino}-2-hydroxy-2-methylpropyl)oxy]-4-hydroxyphenyl}acetamide furoate]"
,,,< 50,CC(=O)Nc1ccc(O)cc1OC[C@@](C)(O)CNC1CCN(Cc2ccc(Cl)cc2)CC1 [N-{2-[((2S)-3-{[1-(4-chlorobenzyl)piperidin-4-yl]amino}-2-hydroxy-2-methylpropyl)oxy]-4-hydroxyphenyl}acetamide ditrifluoroacetate]

# From patent publication US20080280951A1, “Salt Il” (ASTRAZENECA AB, priority 2005, published 2008)
